# Measured values: patent US9894902B2, “Herbicidal compositions comprising 4-amino-3-chloro-6-(4-chloro-2-fluoro-3-methoxyphenyl)pyridine-2-carboxylic acid or a derivative thereof and picloram or a derivative thereof” (Dow AgroSciences LLC, priority 2013, dated 2018)
# How the values were obtained:
# Test in all cases: Postemergent herbicidal activity, greenhouse, foliar-applied
# Type in all cases: in vivo
# Conditions in all cases: foliar postemergence
# [1] = system: STEME Stellaria media (L.) Vill. (common chickweed)
# Protocol: (§1) Evaluation of Postemergent Herbicidal Activity. Seeds or nutlets of the desired test plant species were planted in Sun Gro Metro-Mix® 360 planting mixture, which typically has a pH of 6.0 to 6.8 and an organic matter content of about 30 percent, in plastic pots with a surface area of 64 square centimeters (cm^2). […] The plants were grown for 7-21 days (d) in a greenhouse with an approximate 15 hour (h) photoperiod which was maintained at about 23-29° C. during the day and 22-28° C. during the night. Nutrients and water were added on a regular basis and supplemental lighting was provided with overhead metal halide 1000-Watt lamps as necessary. The plants were employed for testing when they reached the first or second true leaf stage.
# (§2) A weighed amount, determined by the highest rate to be tested, of each test compound was placed in a 25 milliliter (mL) glass vial and was dissolved in 4 mL of a 97:3 volume per volume (v/v) mixture of acetone and dimethyl sulfoxide (DMSO) to obtain concentrated stock solutions. […] The concentrated stock solutions obtained were diluted with 20 mL of an aqueous mixture containing acetone, water, isopropyl alcohol, DMSO, Atplus 411F crop oil concentrate, and Triton® X-155 surfactant in a 48.5:39:10:1.5:1.0:0.02 v/v ratio to obtain spray solutions containing the highest application rates. Additional application rates were obtained by serial dilution of 12 mL of the high rate solution into a solution containing 2 mL of a 97:3 v/v mixture of acetone and DMSO and 10 mL of an aqueous mixture containing acetone, water, isopropyl alcohol, DMSO, Atplus 411F crop oil concentrate, and Triton X-155 surfactant in a 48.5:39:10:1.5:1.0:0.02 v/v ratio to obtain 1/2×, 1/4×, 1/8×and 1/16× rates of the high rate. Compound requirements are based upon a 12 mL application volume at a rate of 187 liters per hectare (L/ha). Formulated compounds were applied to the plant material with an overhead Mandel track sprayer equipped with 8002E nozzles calibrated to deliver 187 L/ha over an application area of 0.503 square meters (m^2) at a spray height of 18 inches ([…]) above the average plant canopy height. Control plants were sprayed in the same manner with the solvent blank.
# (§3) Treatments consisted of the methyl ester of 4-amino-3-chloro-6-(4-chloro-2-fluoro-3-methoxyphenyl)pyridine-2-carboxylic acid (Cmpd 1) as technical grade material and picloram (Tordon® 22K) alone and in combination. The form of compound of formula (I) and picloram-potassium salt were applied on an acid equivalent basis.
# (§4) The treated plants and control plants were placed in a greenhouse as described above and watered by subirrigation to prevent wash-off of the test compounds. After 14 d, the condition of the test plants as compared with that of the untreated plants was determined visually and scored on a scale of 0 to 100 percent where 0 corresponds to no injury and 100 corresponds to complete kill.
# (§5) The values reported are % control visually rated. Colby's equation was used to determine the herbicidal effects expected from the mixtures (Colby, S.R. Calculation of the synergistic and antagonistic response of herbicide combinations. Weeds 1967, 15, 20-22.).
# (§6) More specifically, the following equation was used to calculate the expected activity of mixtures containing two active ingredients, A and B: Expected=A+B−(A×B/100) • A=observed efficacy of active ingredient A at the same concentration as used in the mixture; • B=observed efficacy of active ingredient B at the same concentration as used in the mixture.
# [2] = system: GLXMA Glycine max (volunteer soybean)
# Protocol: as §1, §2, §3, §4, §5, §6
# [3] = system: AMARE Amaranthus retroflexus L. (redroot pigweed)
# Protocol: as §1, §2, §3, §4, §5, §6
# [4] = system: VIOTR Viola tricolor L. (wild violet)
# Protocol: as §1, §2, §3, §4, §5, §6
# [5] = system: EPHHL Euphorbia heterophylla L. (wild poinsettia)
# Protocol: as §1, §2, §3, §4, §5, §6
# [6] = system: BRSNW Brassica napus (winter oilseed rape)
# Protocol: as §1, §2, §3, §4, §5, §6
# [7] = system: CYPES Cyperus esculentus L. (yellow nutsedge)
# Protocol: as §1, §2, §3, §4, §5, §6
# [8] = system: SETFA Setaria faberi Herrm. (giant foxtail)
# Protocol: as §1, §2, §3, §4, §5, §6
# [9] = system: CIRAR Cirsium arvense (L.) Scop. (Canada thistle)
# Protocol: as §1, §2, §3, §4, §5, §6
# [10] = system: ABUTH Abutilon theophrasti Medik. (velvetleaf)
# Protocol: as §1, §2, §3, §4, §5, §6
smiles,measurement,setting,value
"COC(=O)c1nc(-c2ccc(Cl)c(OC)c2F)cc(N)c1Cl [Cmpd I, methyl ester of 4-amino-3-chloro-6-(4-chloro-2-fluoro-3-methoxyphenyl)pyridine-2-carboxylic acid]",Visual Growth reduction (%) 14 Days After Application STEME obs,[1]; Cmpd I 2.5 g ae/ha alone,50%
same,Visual Growth reduction (%) 14 Days After Application STEME obs,[1]; Cmpd I 5 g ae/ha alone,57%
same,Visual Growth reduction (%) 14 Days After Application STEME obs,[1]; Cmpd I 10 g ae/ha alone,72%
same,Visual Growth reduction (%) 14 Days After Application GLXMA obs,[2]; Cmpd I 2.5 g ae/ha alone,80%
same,Visual Growth reduction (%) 14 Days After Application GLXMA obs,[2]; Cmpd I 5 g ae/ha alone,87%
same,Visual Growth reduction (%) 14 Days After Application GLXMA obs,[2]; Cmpd I 10 g ae/ha alone,100%
same,Visual Growth reduction (%) 14 Days After Application AMARE obs,[3]; Cmpd I 2.5 g ae/ha alone,50%
same,Visual Growth reduction (%) 14 Days After Application AMARE obs,[3]; Cmpd I 5 g ae/ha alone,58%
same,Visual Growth reduction (%) 14 Days After Application AMARE obs,[3]; Cmpd I 10 g ae/ha alone,77%
same,Visual Growth reduction (%) 14 Days After Application VIOTR obs,[4]; Cmpd I 2.5 g ae/ha alone,30%
same,Visual Growth reduction (%) 14 Days After Application VIOTR obs,[4]; Cmpd I 5 g ae/ha alone,43%
same,Visual Growth reduction (%) 14 Days After Application VIOTR obs,[4]; Cmpd I 10 g ae/ha alone,62%
same,Visual Growth reduction (%) 14 Days After Application EPHHL obs,[5]; Cmpd I 2.5 g ae/ha alone,85%
same,Visual Growth reduction (%) 14 Days After Application EPHHL obs,[5]; Cmpd I 5 g ae/ha alone,93%
same,Visual Growth reduction (%) 14 Days After Application EPHHL obs,[5]; Cmpd I 10 g ae/ha alone,100%
same,Visual Growth reduction (%) 14 Days After Application BRSNW obs,[6]; Cmpd I 2.5 g ae/ha alone,0%
same,Visual Growth reduction (%) 14 Days After Application BRSNW obs,[6]; Cmpd I 5 g ae/ha alone,0%
same,Visual Growth reduction (%) 14 Days After Application BRSNW obs,[6]; Cmpd I 10 g ae/ha alone,10%
same,Visual Growth reduction (%) 14 Days After Application CYPES obs,[7]; Cmpd I 2.5 g ae/ha alone,20%
same,Visual Growth reduction (%) 14 Days After Application CYPES obs,[7]; Cmpd I 5 g ae/ha alone,72%
same,Visual Growth reduction (%) 14 Days After Application CYPES obs,[7]; Cmpd I 10 g ae/ha alone,96%
same,Visual Growth reduction (%) 14 Days After Application SETFA obs,[8]; Cmpd I 2.5 g ae/ha alone,0%
same,Visual Growth reduction (%) 14 Days After Application SETFA obs,[8]; Cmpd I 5 g ae/ha alone,5%
same,Visual Growth reduction (%) 14 Days After Application SETFA obs,[8]; Cmpd I 10 g ae/ha alone,35%
same,Visual Growth reduction (%) 14 Days After Application CIRAR obs,[9]; Cmpd I 2.5 g ae/ha alone,47%
same,Visual Growth reduction (%) 14 Days After Application CIRAR obs,[9]; Cmpd I 5 g ae/ha alone,53%
same,Visual Growth reduction (%) 14 Days After Application CIRAR obs,[9]; Cmpd I 10 g ae/ha alone,65%
same,Visual Growth reduction (%) 14 Days After Application ABUTH obs,[10]; Cmpd I 2.5 g ae/ha alone,87%
same,Visual Growth reduction (%) 14 Days After Application ABUTH obs,[10]; Cmpd I 5 g ae/ha alone,85%
same,Visual Growth reduction (%) 14 Days After Application ABUTH obs,[10]; Cmpd I 10 g ae/ha alone,90%
"Nc1c(Cl)c(Cl)nc(C(=O)O)c1Cl [Picloram, 4-amino-3,5,6-trichloro-2-pyridinecarboxylic acid]",Visual Growth reduction (%) 14 Days After Application STEME obs,[1]; Picloram 12 g ae/ha alone,27%
same,Visual Growth reduction (%) 14 Days After Application STEME obs,[1]; Picloram 24 g ae/ha alone,17%
same,Visual Growth reduction (%) 14 Days After Application GLXMA obs,[2]; Picloram 12 g ae/ha alone,73%
same,Visual Growth reduction (%) 14 Days After Application GLXMA obs,[2]; Picloram 24 g ae/ha alone,82%
same,Visual Growth reduction (%) 14 Days After Application AMARE obs,[3]; Picloram 12 g ae/ha alone,63%
same,Visual Growth reduction (%) 14 Days After Application AMARE obs,[3]; Picloram 24 g ae/ha alone,63%
same,Visual Growth reduction (%) 14 Days After Application VIOTR obs,[4]; Picloram 12 g ae/ha alone,0%
same,Visual Growth reduction (%) 14 Days After Application VIOTR obs,[4]; Picloram 24 g ae/ha alone,3%
same,Visual Growth reduction (%) 14 Days After Application EPHHL obs,[5]; Picloram 12 g ae/ha alone,62%
same,Visual Growth reduction (%) 14 Days After Application EPHHL obs,[5]; Picloram 24 g ae/ha alone,65%
same,Visual Growth reduction (%) 14 Days After Application BRSNW obs,[6]; Picloram 12 g ae/ha alone,13%
same,Visual Growth reduction (%) 14 Days After Application BRSNW obs,[6]; Picloram 24 g ae/ha alone,20%
same,Visual Growth reduction (%) 14 Days After Application CYPES obs,[7]; Picloram 12 g ae/ha alone,0%
same,Visual Growth reduction (%) 14 Days After Application CYPES obs,[7]; Picloram 24 g ae/ha alone,0%
same,Visual Growth reduction (%) 14 Days After Application SETFA obs,[8]; Picloram 12 g ae/ha alone,0%
same,Visual Growth reduction (%) 14 Days After Application SETFA obs,[8]; Picloram 24 g ae/ha alone,0%
same,Visual Growth reduction (%) 14 Days After Application CIRAR obs,[9]; Picloram 12 g ae/ha alone,65%
same,Visual Growth reduction (%) 14 Days After Application CIRAR obs,[9]; Picloram 24 g ae/ha alone,82%
same,Visual Growth reduction (%) 14 Days After Application ABUTH obs,[10]; Picloram 12 g ae/ha alone,25%
same,Visual Growth reduction (%) 14 Days After Application ABUTH obs,[10]; Picloram 24 g ae/ha alone,15%
